The values that follow come from US20040138199A1, “Benzoxazines and derivatives thereof as therapeutic agents” (priority 2002, published 2004).

As a reminder, the IC50 is the concentration needed to halve the response being measured.

The target in this experiment is T1, p101/p110γ protein (PI3Kγ) (Homo sapiens, UniProt P48736).
T1 construct: HA; made in house; host or cells: Spodoptera frugiperda (Sf9) cells, baculovirus coinfection
T1 sequence (P48736 whole entry, species assumed): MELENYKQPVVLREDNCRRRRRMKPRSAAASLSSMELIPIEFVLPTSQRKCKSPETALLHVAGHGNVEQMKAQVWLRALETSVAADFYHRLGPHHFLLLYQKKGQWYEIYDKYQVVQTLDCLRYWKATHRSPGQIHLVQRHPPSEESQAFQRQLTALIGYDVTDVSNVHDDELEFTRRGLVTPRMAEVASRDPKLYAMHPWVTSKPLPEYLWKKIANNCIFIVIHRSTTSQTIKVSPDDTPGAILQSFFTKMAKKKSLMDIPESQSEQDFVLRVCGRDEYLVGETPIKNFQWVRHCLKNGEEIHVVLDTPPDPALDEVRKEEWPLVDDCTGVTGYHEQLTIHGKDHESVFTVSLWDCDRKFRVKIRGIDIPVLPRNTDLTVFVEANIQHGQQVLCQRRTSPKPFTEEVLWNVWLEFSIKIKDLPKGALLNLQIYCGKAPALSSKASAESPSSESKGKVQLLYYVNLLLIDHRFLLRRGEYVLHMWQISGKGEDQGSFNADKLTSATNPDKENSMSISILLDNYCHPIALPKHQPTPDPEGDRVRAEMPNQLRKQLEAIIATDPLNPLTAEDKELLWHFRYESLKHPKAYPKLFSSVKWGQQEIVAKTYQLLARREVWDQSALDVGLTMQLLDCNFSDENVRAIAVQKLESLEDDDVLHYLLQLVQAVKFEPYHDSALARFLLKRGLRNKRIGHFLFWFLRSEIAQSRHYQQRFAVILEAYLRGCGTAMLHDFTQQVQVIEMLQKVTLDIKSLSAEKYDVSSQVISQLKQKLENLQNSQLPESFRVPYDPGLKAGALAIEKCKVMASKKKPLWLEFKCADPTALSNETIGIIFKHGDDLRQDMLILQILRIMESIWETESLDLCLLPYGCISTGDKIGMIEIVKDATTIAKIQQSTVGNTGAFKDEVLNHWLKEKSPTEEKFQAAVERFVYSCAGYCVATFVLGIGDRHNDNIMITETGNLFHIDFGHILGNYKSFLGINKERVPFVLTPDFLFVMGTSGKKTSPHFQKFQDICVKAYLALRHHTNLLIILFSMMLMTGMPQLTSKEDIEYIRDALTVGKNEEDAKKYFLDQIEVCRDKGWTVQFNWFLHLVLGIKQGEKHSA
T1 sequence (Q8WYR1 whole entry partner, species assumed): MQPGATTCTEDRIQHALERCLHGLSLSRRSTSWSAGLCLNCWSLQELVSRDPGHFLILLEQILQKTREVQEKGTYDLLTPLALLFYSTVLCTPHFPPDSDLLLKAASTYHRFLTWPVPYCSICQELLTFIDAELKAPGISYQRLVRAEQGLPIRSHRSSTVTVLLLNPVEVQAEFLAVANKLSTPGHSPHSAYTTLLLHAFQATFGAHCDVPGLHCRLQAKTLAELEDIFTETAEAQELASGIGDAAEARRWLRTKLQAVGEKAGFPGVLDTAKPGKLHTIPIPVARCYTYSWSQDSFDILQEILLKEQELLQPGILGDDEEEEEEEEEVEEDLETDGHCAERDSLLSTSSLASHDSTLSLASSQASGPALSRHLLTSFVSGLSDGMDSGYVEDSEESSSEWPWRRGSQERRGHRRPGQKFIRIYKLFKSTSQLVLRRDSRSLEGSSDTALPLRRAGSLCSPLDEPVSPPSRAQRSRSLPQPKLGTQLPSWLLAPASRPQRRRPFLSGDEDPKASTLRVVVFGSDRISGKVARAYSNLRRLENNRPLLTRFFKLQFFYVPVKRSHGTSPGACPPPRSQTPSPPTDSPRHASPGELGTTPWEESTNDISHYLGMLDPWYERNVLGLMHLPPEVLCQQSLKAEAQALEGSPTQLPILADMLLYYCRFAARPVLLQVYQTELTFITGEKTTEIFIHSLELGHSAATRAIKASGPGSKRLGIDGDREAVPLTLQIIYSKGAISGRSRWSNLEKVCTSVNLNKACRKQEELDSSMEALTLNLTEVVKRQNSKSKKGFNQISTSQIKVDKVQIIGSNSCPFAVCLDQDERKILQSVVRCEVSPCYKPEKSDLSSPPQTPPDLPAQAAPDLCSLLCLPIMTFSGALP
Kind of experiment: PI3Kγ In Vitro Kinase Assay. Type of experiment: biochemical. To be noted: purified recombinant p101/p110γ with G protein β1/γ2 subunits; 20 μM ATP, 25 μM PIP2; 20 minutes at room temperature; radioactive PIP3 readout. On the procedure: Spodtera frugiperda cells, grown in ESF921 media, were coinfected with baculovirus expressing a glu-tagged […] and baculovirus expressing an HA-tagged p110γ, at a 3:1 ratio of p110 baculovirus to p110γ baculovirus. Sf9 cells were grown to 1×10^7 total cells/mL in 10L bioreactors and harvested 48-72 hours post infection. Samples of infected cells were then tested for expression of p101/p110γ PI3 kinase by immunoprecipitation and Western Blot analysis methods (see below).
To purify PI3Kγ, 4 volumes of room temperature hypotonic lysis buffer (1 mM MgCl2, 1 mM DTT, 5 mM EGTA, 1 mM Pefabloc, 0.5 μM aprotinin, […], 2 μM pepstatin, 5 μM E64, pH 8) per gram of cell paste, was poured onto frozen cell pellets with stirring, then lysed in a nitrogen “bomb” at 400 psi (599HC T316, Parr Instrument Co, Moline, Ill.). NaCl was added to 150 mM, and sodium cholate was added to 1% and mixed for another 45 minutes. The lysates were clarified by centrifugation for 25 minutes at 14,000 rpm. The lysates were then loaded over anti-glu-linked Protein-G Sepaharose beads (Covance Research Products, Richmond, Calif.) using 20 mL resin/50 g cell paste. The column was washed with 15 volumes of wash buffer (1 mM DTT, 0.2 mM EGTA, 1 mM Pefabloc, 0.5 μM aprotinin, 5 μM leupeptin, 2 μM pepstatin, 5 μM E64, 150 mM NaCl, 1% sodium cholate, pH 8). PI3Kγ was eluted with 6 column volumes of wash buffer that contain 100 μg/mL of a peptide that competes for binding of the glu tag. The column fractions with the eluted protein (determined by taking OD280 readings) were collected and dialyzed in 0.2 mM EGTA, 1 mM DTT, 1 mM Pefabloc, 5 μM leupeptin, 0.5% sodium cholate, 150 mM NaCl, and 50% glycerol, pH 8. The fractions were stored at −80° C. until further use.
Spodtera frugiperda cells were coinfected with baculovirus expressing a glu-tagged G protein β1 and baculovirus expressing a […] at a 1:1 ratio of glu-tagged G protein β1 baculovirus to G protein β2 baculovirus. Sf9 cells are grown in 10 L bioreactors and harvested 48-72 hours post infection. Samples of infected cells were tested for G protein β1/β2 expression by Western Blot analysis, as described below. Cell lysates were homogenized and loaded onto a column of glu-tagged beads as in Biological Example 1 and competed off the column with a glu peptide as described in Biological Example 1.
The inhibitory properties of the compounds in Table 1 were assayed in an in vitro PI3K assay. In a 96-well polypropylene plate, each well was spotted with 2 μL of 50 times the desired final concentration of compound in DMSO. Purified recombinant p101/p110γ protein (0.03 μg; ˜2.7 nM) and G protein β1/γ2 subunits (0.09 μg; −57.7 nM) for each reaction was combined in the assay buffer (30 mM HEPES, 100 mM NaCl, 1 mM EGTA, and 1 mM DTT). ATP and [γ-^32P-ATP] (0.09 μCi) were added to this mixture so that the final ATP concentration in the reaction was 20 μM. Lipid micelles were formed by sonicating phosphatidylinositol-4,5-diphosphate (PIP2), phosphatidylethanolamine (PE), and Na-cholate in the assay buffer for 10 minutes, adding MgCL2 and incubating on ice for 20 minutes, for final concentrations of 25 μM PIP2, 300 μM PE, 0.02% Na-cholate, and 10 mM MgCl2 in the reaction. The reactions were started by adding equal volumes lipid and enzyme mixture in a total volume of 50 μL, allowed to run for 20 minutes at room temperature, and stopped with 100 μL 75 mM H3PO4. The lipid product was transferred to a glass fiber filter plate and washed with 75 mM H3PO4 several times. The presence of radioactive lipid product (PIP3) was measured by adding Wallac Optiphase mix to each well and counting in a Wallac 1450 Trilux plate reader (PerkinElmer Life Sciences Inc., Boston, Mass. 02118). The IC50 for each compound tested is reported in μM in Table 1: […]
As for `O=C1NC(=S)SC1=Cc1ccc2c(c1)N(C(=O)Cc1ccccc1)CCO2` [Example 19, 5-(4-Phenylacetyl-3,4-dihydro-2H-1,4-benzoxazin-6-ylmethylene)-2-thioxo-thiazolidin-4-one], the IC50 is 55 nM.

As for `COc1ccc(CC(=O)N2CCOc3ccc(C=C4SC(=S)NC4=O)cc32)cc1OC` [Example 20, 5-{4-[2-(3,4-Dimethoxy-phenyl)-acetyl]-3,4-dihydro-2H-1,4-benzoxazin-6-ylmethylene}-2-thioxo-thiazolidin-4-one], the IC50 is 73 nM.

As for `CC(C)(C)C(=O)N1CCOc2ccc(C=C3SC(=S)NC3=O)cc21` [Example 97, 5-[4-(2,2-Dimethyl-propionyl)-3,4-dihydro-2H-1,4-benzoxazin-6-ylmethylene]-2-thioxo-thiazolidin-4-one], the IC50 amounted to 1610 nM.

In the case of “5-(9-Cyclopropanecarbonyl-6,7,8,9-tetrahydro-5-oxa-9-aza-benzocyclohepten-2-ylmethylene)-2-thioxo-thiazolidin-4-one [Example 104]”, the IC50 is 115 nM.

`O=C1NC(=S)SC1=Cc1ccc2c(c1)N(C(=O)NCCc1cccs1)CCO2` [Example 64, 6-(4-Oxo-2-thioxo-thiazolidin-5-ylidenemethyl)-2,3-!dihydro-1,4-benzoxazine-4-carboxylic acid (2-thiophen-2-yl-ethyl)-amide]: the IC50 was found to be 4000 nM.

In the case of `O=C1NC(=S)SC1=Cc1ccc2c(c1)N(C(=O)c1cc(F)cc(F)c1)CCO2` [Example 46, 5-[4-(3,5-Difluoro-benzoyl)-3,4-dihydro-2H-1,4-benzoxazin-6-ylmethylene]-2-thioxo-thiazolidin-4-one], the IC50 stood at 372 nM.

Consider `CC(C)C(C)C(=O)N1CCOc2ccc(C=C3SC(=S)NC3=O)cc21` (stereo not drawn) [Example 86, 5-[4-(2,3-Dimethyl-butyryl)-3,4-dihydro-2H-benzo[1,4]oxazin-6-ethylene]-2-thioxo-thiazolidin-4-one], for which the IC50 was 179 nM.

As for `Cc1ccc(OC(=O)N2CCOc3ccc(C=C4SC(=S)NC4=O)cc32)cc1` [Example 18, 6-(4-Oxo-2-thioxo-thiazolidin-5-ylidenemethyl)-2,3-dihydro-1,4-benzoxazine-4-carboxylic acid p-tolyl ester], the IC50 is 4 nM.

As for `O=C1NC(=S)SC1=Cc1ccc2c(c1)N(C(=O)c1cccnc1)CCO2` [Example 13], the IC50 was 410 nM.

With `COc1ccc(NC(=O)N2CCOc3ccc(C=C4SC(=S)NC4=O)cc32)cc1OC` [Example 75, 6-(4-Oxo-2-thioxo-thiazolidin-5-ylidenemethyl)-2,3-dihydro-benzo[14]oxazine-4-carboxylic acid (3,4-dimethoxy-phenyl)-aniide], the IC50 worked out at 14 nM.

Regarding `O=C1NC(=S)SC1=Cc1ccc2c(c1)N(C(=O)c1cc(Cl)sc1Cl)CCO2` [Example 51, 5-[4-(2,5-Dichloro-thiophene-3-carbonyl)-3,4-dihydro-2H-1,4-benzoxazin-6-ylmethylene]-2-thioxo-thiazolidin-4-one], the IC50 came to 860 nM.

Regarding `O=C1NC(=S)SC1=Cc1ccc2c(c1)N(C(=O)Nc1cc(Cl)cc(Cl)c1)CCO2` [Example 76, 6-(4-Oxo-2-thioxo-thiazolidin-5-ylidenemethyl)-2,3-dihydro-benzo[14]oxazine-4-carboxylic acid (3,5-dichloro-phenyl)-amide], the IC50 worked out at 33 nM.

Turning to `CC(=O)N1CCOc2ccc(C=C3SC(=S)NC3=O)cc21` [Example 92, 5-(4-Acetyl-3,4-dihydro-2H-1,4-benzoxazin-6-ylmethylene)-2-thioxo-thiazolidin-4-one], the IC50 was 33 nM.

As for `CCC(=O)N1CCOc2ccc(C=C3SC(=S)NC3=O)cc21` [Example 93, 4-(4-Propionyl-3,4-dihydro-2H-1,4-benzoxazin-6-ylmethylene)-2-thioxo-thiazolidin-4-one], the IC50 was 12 nM.

For `CCCCCCCCC(=O)N1CCOc2ccc(C=C3SC(=S)NC3=O)cc21` [Example 98, 5-[4-(4-Nonanoyl)-3,4-dihydro-2H-1,4-benzoxazin-6-ylmethylene]-2-thioxo-thiazolidin-4-one], the IC50 worked out at 25 nM.

For the compound `O=C1NC(=S)SC1=Cc1ccc2c(c1)N(C(=O)CCCc1ccccc1)CCO2` [Example 82, 5-[4-(4-Phenyl-butryl)-3,4-dihydro-2H-benzo[1,4]oxazin-6-ethylene]-2-thioxo-thiazolidin-4-one], the IC50 amounted to 1 nM.

In the case of `O=C1NC(=S)SC1=Cc1ccc2c(c1)N(C(=O)c1sccc1Cl)CCO2` [Example 53, 5-[4-(3-Chloro-thiophene-2-carbonyl)-3,4-dihydro-2H-1,4-benzoxazin-6-ylmethylene]-2-thioxo-thiazolidin-4-one], the IC50 was 265 nM.

Regarding “2-(4-Oxo-2-thioxo-thiazolidin-5-ylidenemethyl)-7,8-dihydro-6H-5-oxa-9-aza-benzocycloheptene-9-carboxylic acid p-tolylamide [Example 110]”, the IC50 came to 3500 nM.

For the compound “5-[9-(4-Hexyl-benzoyl)-6,7,8,9-tetrahydro-5-oxa-9-aza-benzocyclohepten-2-ylmethylene]-2-thioxo-thiazolidin-4-one [Example 126]”, the IC50 came out at 4200 nM.

For the compound `CC1CCCCC1CCC(=O)N1CCOc2ccc(C=C3SC(=S)NC3=O)cc21` (stereo not drawn) [Example 87], the IC50 is 120 nM.

As for `O=C1NC(=S)SC1=Cc1ccc2c(c1)N(C(=O)Nc1cccc(C(F)(F)F)c1)CCO2` [Example 55, 6-(4-Oxo-2-thioxo-thiazolidin-5-ylidenemethyl)-2,3-dihydro-1,4-benzoxazine-4-carboxylic acid (3-trifluoromethyl-phenyl)-amide], the IC50 came to 5 nM.

`O=C1NC(=S)SC1=Cc1ccc2c(c1)N(C(=O)CSc1ccccc1)CCO2` [Example 40, 5-[4-(2-Phenylsulfanyl-acetyl)-3,4-dihydro-2H-1,4-benzoxazin-6-ylmethylene]-2-thioxo-thiazolidin-4-one]: the IC50 turned out to be 12 nM.

Regarding `N#Cc1ccc(C(=O)N2CCOc3ccc(C=C4SC(=S)NC4=O)cc32)cc1` [Example 28, 4-[6-(4-Oxo-2-thioxo-thiazolidin-5-ylidenemethyl)-2,3-dihydro-1,4-benzoxazine-4-carbonyl]-benzonitrile], the IC50 was determined as 385 nM.

In the case of `O=C1NC(=S)SC1=Cc1ccc2c(c1)N(CCc1ccccc1)CCCO2` [Example 16, 5-(9-Phenethyl-6,7,8,9-tetrahydro-5-oxa-9-aza-benzocyclohepten-2-ylmethylene)-2-thioxo-thiazolidin-4-one], the IC50 was determined as 80 nM.

Turning to `O=C1NC(=S)SC1=Cc1ccc2c(c1)N(C(=O)Oc1cccc3ccccc13)CCCO2` [Example 106, 2-(4-Oxo-2-thioxo-thiazolidin-5-ylidenemethyl)-7,8-dihydro-6H-5-oxa-9-aza-benzocycloheptene-9-carboxylic acid naphthalen-1-yl ester], the concentration for half-maximal inhibition (IC50) is 400 nM.

Regarding `CC(=O)OC(C)C(=O)N1CCOc2ccc(C=C3SC(=S)NC3=O)cc21` (stereo not drawn) [Example 100, Acetic acid 1-methyl-2-oxo-2-[6-(4-oxo-2-thioxo-thiazolidin-5-ylidenemethyl)-2,3-dihydro-1,4-benzoxazin-4-yl]-ethyl ester], the IC50 was determined as 535 nM.

On to `O=C1NC(=S)SC1=Cc1ccc2c(c1)N(C(=O)c1ccncc1)CCO2` [Example 12], for which the IC50 is 410 nM.
